The values that follow come from patent US12398127B2, “Thyroid hormone receptor beta agonist compounds” (Terns Pharmaceuticals, Inc., priority 2019, dated 2025).

One experiment concerns the target T1, TR beta-LBD (Homo sapiens, UniProt P10828).
T1 construct: TR alpha-LBD (0.4 nM final concentration) or TR beta-LBD (1.0 nM final concentration) was added; purchased ThermoFisher
T1 sequence (P10828 217-461 limits assumed): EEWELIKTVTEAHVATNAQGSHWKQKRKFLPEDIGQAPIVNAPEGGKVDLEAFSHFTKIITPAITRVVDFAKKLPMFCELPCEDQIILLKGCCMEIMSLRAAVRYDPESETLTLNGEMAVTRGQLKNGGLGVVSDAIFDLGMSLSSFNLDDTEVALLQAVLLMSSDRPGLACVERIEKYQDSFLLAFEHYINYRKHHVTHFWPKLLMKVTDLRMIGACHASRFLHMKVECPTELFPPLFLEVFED
Put plainly: LanthaScreen TR-FRET Thyroid Receptor beta Coactivator Assay. It is filed as biochemical. The note with it: for THRβ-Selectivity: THR beta over THR alpha, derived from T3-selectivity normalized data; for EC50: TR-FRET coactivator recruitment, 2 hour incubation at room temperature, run in duplicate multiple times, average data reported, read-out: EC50 THRβ-FRET. The protocol:
(§1) LanthaScreen™ TR-FRET Thyroid Receptor alpha Coactivator Assay kit (ThermoFisher) and LanthaScreen™ TR-FRET Thyroid Receptor beta Coactivator Assay kit (ThermoFisher) were used for agonist compound screening. Compounds in DMSO were diluted using ECHO Liquid Handler (Labcyte Inc.) into 384 plates in 10-point 3-fold series in duplicate (5 micro M final top concentration). Buffer C (ThermoFisher) was added to each well before the 4×mixture of fluorescein-SCR2-2 coactivator (200 nM final concentration), Terbium-labeled anti-GST antibody (2 nM final concentration), and TR alpha-LBD (0.4 nM final concentration) or TR beta-LBD (1.0 nM final concentration) was added. After 2 hour incubation at room temperature in dark, the TR-FRET signal was measured on an EnVision plate reader (PerkinElmer) with excitation at 340 nm and dual emission readout at 495 and 520 nm with the delay time of 100 micro second and the integration time of 200 micro second. The ratio of emission signal at 520 and at 495 was used to calculate EC50 using GraphPad Prism (GraphPad Software). In every batch of compound screening, T3 (L-3,3′,5-Triiodothyronine sodium salt, >95%) (Calbiochem) was used as reference compound. The EC50 of T3 measured were within 3-fold of the reference value provided by the assay kit manufacturer (ThermoFisher Scientific). The Z′ factors measured in every batch of screening using T3 as high percent effect (HPE) control and 0.5% DMSO as zero percent effect (ZPE) control were in the range of 0.5 to 0.8. Compounds' THR-beta selectivity values are derived from T3-selectivity normalized data.
Background: In TR-FRET formats the signal depends on donor and acceptor labels being close together.

Another experiment addresses T2, TR alpha-LBD (Homo sapiens, UniProt P10827).
T2 construct: TR alpha-LBD (0.4 nM final concentration) or TR beta-LBD (1.0 nM final concentration) was added; purchased ThermoFisher
Put plainly: LanthaScreen TR-FRET Thyroid Receptor alpha Coactivator Assay. The experiment is classed as biochemical. The conditions noted are these: TR-FRET coactivator recruitment, 2 hour incubation at room temperature; run in duplicate multiple times, average data reported; read-out: EC50 THRα-FRET. The protocol:
as §1, with “The EC50 of T3 measured were within 3-fold of the reference value provided by the assay kit manufacturer (ThermoFisher Scientific).” left out, “Compounds' THR-beta selectivity values are derived from T3-selectivity normalized data.” left out

Molecules are shown by their SMILES.

T2 sequence (P10827 163-410 isoform P10827-2 limits assumed, other chains not shown): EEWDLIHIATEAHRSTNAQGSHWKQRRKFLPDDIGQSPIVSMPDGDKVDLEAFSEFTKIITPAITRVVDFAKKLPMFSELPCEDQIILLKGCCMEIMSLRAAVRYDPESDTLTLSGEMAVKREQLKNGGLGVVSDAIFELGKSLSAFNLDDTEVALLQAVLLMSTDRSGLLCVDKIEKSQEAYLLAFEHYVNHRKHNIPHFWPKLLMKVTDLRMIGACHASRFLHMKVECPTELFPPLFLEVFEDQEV

Broadly, the EC50 is the concentration needed to bring the measured effect to its halfway point. `O=C(Nc1cc(Cl)c(Oc2n[nH]c(=O)c3ccccc23)c(Cl)c1)c1noc(=O)[nH]1` [Example 1, N-(3,5-dichloro-4-((4-oxo-3,4-dihydrophthalazin-1-yl)oxy)phenyl)-5-oxo-4,5-dihydro-1,2,4-oxadiazole-3-carboxamide] showed a THRβ-Selectivity on TR beta-LBD of 57.5. Besides, the EC50 was 33.7 nM on TR beta-LBD and 492 nM at TR alpha-LBD.

Regarding `Cn1nc(Oc2c(Cl)cc(NC(=O)c3noc(=O)[nH]3)cc2Cl)c2ccccc2c1=O` [Example 2, N-(3,5-dichloro-4-((3-methyl-4-oxo-3,4-dihydrophthalazin-1-yl)oxy)phenyl)-5-oxo-4,5-dihydro-1,2,4-oxadiazole-3-carboxamide], at TR beta-LBD, the THRβ-Selectivity is 10.9 and the EC50 is 5.5 nM. Also, on TR alpha-LBD, the EC50 came to 40.5 nM.
